We go through one molecule from ChEMBL document CHEMBL5137114, “Discovery of IHMT-MST1-58 as a Novel, Potent, and Selective MST1 Inhibitor for the Treatment of Type 1/2 Diabetes” (J Med Chem, 2022).

Calls of active or inactive are those of the source. No cut-off for these calls is given here. A value given as a limit tells only on which side of the number the result lay.

The subject of series [1] is Serine/threonine-protein kinase 4 (Rattus norvegicus). In words: Inhibition of IL-1beta-stimulated MST1 phosphorylation in rat INS1 cells incubated for 12 hrs by Western blotting analysis. Conditions: dose 0.1-10 µM, DDE = dose-dependent effect.
Series [2] is described as follows: AUC (0 to t) in mouse at 1 mg/kg, iv measured up to 12 hrs by LC-MS/MS analysis. The class given is ADME, organism-based. Also on record: time < 12 hrs, dose 1 mg/kg, route iv. The settings on record: in vivo.
Series [3] deals with Mus musculus. The series is described as follows: Antidiabetic activity against 8 hrs fasted multi low dose STZ-induced C57BL/6J mouse model of type 1 diabetes assessed as decrease in fasting blood glucose level at 50 mg/kg, po administered measured immediately in presence of metformin (reference value: 19.3 mmol/L). The class given is functional.
Series [4] is described as follows: Half life in mouse at 10 mg/kg, po measured up to 24 hrs by LC-MS/MS analysis. In kind it is ADME, organism-based. The settings on record: in vivo.
A short description of series [5]: Oral bioavailability in Beagle dog at 10 mg/kg measured up to 24 hrs by LC-MS/MS analysis. In kind it is ADME, organism-based, Canis lupus familiaris. Conditions: in vivo.
Series [6] deals with T1, Serine/threonine-protein kinase Nek3 (Homo sapiens, UniProt P51956).
T1 sequence (P51956 whole entry): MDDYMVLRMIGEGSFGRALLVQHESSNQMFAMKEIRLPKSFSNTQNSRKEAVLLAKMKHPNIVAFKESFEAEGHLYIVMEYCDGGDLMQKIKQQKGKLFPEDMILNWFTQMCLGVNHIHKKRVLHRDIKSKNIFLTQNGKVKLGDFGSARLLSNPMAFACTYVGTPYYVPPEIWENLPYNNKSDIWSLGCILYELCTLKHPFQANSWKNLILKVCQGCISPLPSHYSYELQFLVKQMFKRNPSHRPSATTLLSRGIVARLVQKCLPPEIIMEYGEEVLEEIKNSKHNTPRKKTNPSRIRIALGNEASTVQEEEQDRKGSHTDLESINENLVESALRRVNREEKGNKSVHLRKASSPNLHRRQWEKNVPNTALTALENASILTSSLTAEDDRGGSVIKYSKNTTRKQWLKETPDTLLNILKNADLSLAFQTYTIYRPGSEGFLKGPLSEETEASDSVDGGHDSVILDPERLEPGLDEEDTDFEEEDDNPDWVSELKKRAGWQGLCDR
The series is described as follows: Inhibition of recombinant full length N-terminal GST -tagged human NEK3 expressed in baculovirus expression system using S2 as substrate incubated for 2 hrs by HTRF assay.

Series [7] deals with RIN-m5F. The series is described as follows: Protection against TNF-alpha-induced cell damage in rat RIN-m5F cells assessed as increase in cell survival at 0.03 to 0.3 uM incubated for 48 hrs by Cell Titer-Glo assay. In kind it is functional, cell-based. The settings on record: dose 0.03-0.3 µM.
The nature of series [8]: Half life in Sprague-Dawley rat at 1 mg/kg, iv measured up to 12 hrs by LC-MS/MS analysis. In kind it is ADME, organism-based. Conditions: in vivo.
Series [9] is described as follows: Cmax in Beagle dog at 10 mg/kg, po measured up to 24 hrs by LC-MS/MS analysis. In kind it is ADME, organism-based, Canis lupus familiaris. More on the design: time < 24 hrs, dose 10 mg/kg, route po. The settings on record: in vivo.
The test system of series [10] is Mus musculus. In words: Antidiabetic activity against 8 hrs fasted multi low dose STZ-induced C57BL/6J mouse model of type 1 diabetes assessed as decrease in fasting blood glucose level at 50 mg/kg, po administered for 77 days in presence of metformin (reference value: 22.3 mmol/L). The class given is functional. The settings on record: time 77 day.

As to `Cc1ccccc1C1C(=O)N(C)c2cnc(Nc3ccc(S(N)(=O)=O)cc3)nc2N1C` (stereo not given), the inhibition entry in series [1] was “Dde”. The molecule further yielded an AUC(0-t) at 12 h in series [2] of 501 ng·h/mL. In addition, the results for the Activity in [3] and in [10] were 19.3 mmol/L and 8.9 mmol/L, respectively. The half-life in [4] is 1.81 h; in [8], 3.51 h. Further, the bioavailability in [5] is 106%. In series [6], the IC50 was more than 10 µM. Also, in [7], the outcome was Active. The peak level in [9] (Cmax) was 1110 ng/mL.
